In data set [1] the target is catalytic domain of human INPP5B (Homo sapiens, UniProt P32019). The experiment in a line: Isothermal titration calorimetry. Format: binding. In general terms: Isothermal titration calorimetry measures the heat released or taken up as one component is titrated into another.
For another data set, the target named is T1, SHIP1 (Mus musculus, UniProt Q9ES52).
T1 sequence (Q9ES52 1-1191): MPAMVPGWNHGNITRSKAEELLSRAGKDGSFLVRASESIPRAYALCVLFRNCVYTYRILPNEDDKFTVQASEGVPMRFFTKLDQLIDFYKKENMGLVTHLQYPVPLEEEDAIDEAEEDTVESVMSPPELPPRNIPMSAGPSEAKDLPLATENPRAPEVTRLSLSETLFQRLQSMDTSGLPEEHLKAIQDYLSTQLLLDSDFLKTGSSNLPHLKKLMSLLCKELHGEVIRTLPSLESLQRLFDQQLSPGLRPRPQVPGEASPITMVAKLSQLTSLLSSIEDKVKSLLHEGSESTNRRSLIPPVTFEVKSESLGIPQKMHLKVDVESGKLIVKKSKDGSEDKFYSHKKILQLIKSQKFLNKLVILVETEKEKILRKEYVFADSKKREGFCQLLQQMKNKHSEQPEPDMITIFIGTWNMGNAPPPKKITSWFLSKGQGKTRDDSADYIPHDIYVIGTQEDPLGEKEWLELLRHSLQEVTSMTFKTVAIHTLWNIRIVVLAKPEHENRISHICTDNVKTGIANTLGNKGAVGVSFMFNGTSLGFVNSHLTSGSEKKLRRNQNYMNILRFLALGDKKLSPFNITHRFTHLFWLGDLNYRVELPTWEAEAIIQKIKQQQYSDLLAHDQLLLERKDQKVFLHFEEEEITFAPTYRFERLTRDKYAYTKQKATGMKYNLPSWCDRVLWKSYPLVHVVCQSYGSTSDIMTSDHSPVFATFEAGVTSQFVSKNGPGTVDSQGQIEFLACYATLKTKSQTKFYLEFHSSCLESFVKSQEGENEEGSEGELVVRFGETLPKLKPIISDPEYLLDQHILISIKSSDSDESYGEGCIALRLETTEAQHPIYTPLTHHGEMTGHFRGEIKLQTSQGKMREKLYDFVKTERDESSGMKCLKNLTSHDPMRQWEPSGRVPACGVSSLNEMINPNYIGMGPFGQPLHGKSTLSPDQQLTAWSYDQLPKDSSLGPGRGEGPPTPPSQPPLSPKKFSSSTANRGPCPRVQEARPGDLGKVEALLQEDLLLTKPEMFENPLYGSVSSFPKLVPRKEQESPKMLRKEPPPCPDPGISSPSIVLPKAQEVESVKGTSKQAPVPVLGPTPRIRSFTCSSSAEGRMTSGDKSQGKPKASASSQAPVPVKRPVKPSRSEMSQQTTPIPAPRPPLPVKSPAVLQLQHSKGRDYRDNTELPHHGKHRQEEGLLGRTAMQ
The experiment in a line: Fluorescence polarization. The data set is classed as biochemical.

Another data set concerns the target INPP5B catalytic domain (Homo sapiens, UniProt P32019). The experiment in a line: Malachite green assay with IP3 substrate, dose response. Format: biochemical.
The subject of the next data set is cell cultures. The note with it: preliminary experiments / data not shown.
For a further data set, the target named is Synaptojanin 1 (SJ1) (Homo sapiens, UniProt O43426). The experiment in a line: Fluorescence polarization. Format: biochemical. On the technique in general: Fluorescence polarisation rises when a labelled molecule tumbles more slowly, as on binding a larger partner.
The target of a further data set is T2, INPP5E (Homo sapiens, UniProt Q9NRR6).
T2 sequence (Q9NRR6 294-598 limits assumed): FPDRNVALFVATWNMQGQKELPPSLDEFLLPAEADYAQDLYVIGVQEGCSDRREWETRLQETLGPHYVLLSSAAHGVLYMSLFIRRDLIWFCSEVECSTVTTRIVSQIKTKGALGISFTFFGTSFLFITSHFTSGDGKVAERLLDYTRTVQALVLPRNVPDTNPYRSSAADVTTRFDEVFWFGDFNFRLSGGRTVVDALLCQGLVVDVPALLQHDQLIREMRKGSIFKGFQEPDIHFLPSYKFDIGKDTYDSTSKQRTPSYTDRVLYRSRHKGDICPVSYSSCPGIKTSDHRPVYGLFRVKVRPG
The experiment in a line: Fluorescence polarization. The data set is classed as biochemical.

The target of another data set is T3, INPP5A (Homo sapiens, UniProt Q14642).
T3 sequence (Q14642 1-402): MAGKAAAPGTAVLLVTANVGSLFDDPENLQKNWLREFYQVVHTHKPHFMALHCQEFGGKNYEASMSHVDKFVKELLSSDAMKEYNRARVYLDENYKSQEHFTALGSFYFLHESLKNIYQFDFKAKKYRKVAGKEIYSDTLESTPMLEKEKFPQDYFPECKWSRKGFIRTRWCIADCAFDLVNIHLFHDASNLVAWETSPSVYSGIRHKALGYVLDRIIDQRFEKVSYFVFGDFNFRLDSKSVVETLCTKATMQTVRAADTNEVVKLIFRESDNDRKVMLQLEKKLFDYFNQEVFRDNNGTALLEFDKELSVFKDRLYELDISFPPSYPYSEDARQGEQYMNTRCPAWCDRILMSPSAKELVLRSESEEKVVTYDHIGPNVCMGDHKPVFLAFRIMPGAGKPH
The experiment in a line: Malachite green assay with IP3 substrate, dose response. The data set is classed as biochemical.

Another data set concerns human dermal fibroblasts. The experiment in a line: Cellular inositol lipid levels, 3H-myo-inositol labeling and HPLC. The data set is classed as cell-based. The note with it: 50 μM, 1 hour treatment.
For data set [2], the target named is T4, INPP5B (Homo sapiens, UniProt P32019). The experiment in a line: biochemical.
For data set [3], the system named is 5-phosphatase domain of human OCRL in COS-7 cells. The experiment in a line: Optogenetic in situ phosphatase assay. Format: cell-based. To be noted: 50 μM, COS-7, n=14 cells, P<0.001 vs DMSO control.
Data set [4] concerns the target T4, INPP5B. The experiment in a line: biochemical. This is another data set of the same source.

Where two headings read alike, the source gives them in different places. Where only a bound is given, the exact number is not on record here.

We go through 5 compounds from PMC4076014 (ACS chemical biology, 2014).

In general, IC50 refers to the concentration that gives 50% inhibition. A lower IC50 goes with greater potency.

As for `CCOc1cc(CN)cc(Br)c1OCC` [YU144369], the “Heat of binding to INPP5B catalytic domain (ITC, in words)” value in data set [1] (protein precipitation during the experiment, results inconclusive, data not shown) is “measurable heat of binding”. Further, the half-maximal inhibitory concentration (IC50) on SHIP1 is 2520 nM; against INPP5B catalytic domain, 570 nM; at Synaptojanin 1 (SJ1), 3630 nM; on INPP5E, 2330 nM; against INPP5A, 1070 nM. Besides, the “Toxicity on cell cultures” value in the data set on cell cultures is listed as “acute toxicity”.

In the case of `c1cc(-c2nnc3scnn23)ccn1` [YU142670], in data set [1] (25°C), the “N (stoichiometry, ITC)” value is given as 0.9108 ± 0.0547; the “ΔH (ITC)” value is reported as −7270 ± 588.6; the “ΔS (ITC)” value is given as 0.5933. Also, the “Ka (association constant, ITC)” value in [1] (25°C, 500 µM compound into 33 µM INPP5B catalytic domain, 5% DMSO) was 2.352×10^5 ± 8.744×10^4. In addition, the IC50 against INPP5B catalytic domain is 530 nM. The compound also had an IC50 against INPP5E of more than 70000 nM. In addition, the “All other phosphoinositide levels measured” value in the data set on human dermal fibroblasts is reported as “remained unchanged”. At INPP5B [2], this compound had an IC50 of 17500 nM. For the same compound, the “Loss (drop) of plasma membrane iRFP-PH-PLCδ1 fluorescence” value in data set [3] is 32±3%.

Turning to `CC(C)Oc1c(Cl)cc(CN)cc1Cl` [YU144530], the IC50 is 2890 nM on SHIP1; 810 nM on INPP5B catalytic domain; more than 70000 nM on Synaptojanin 1 (SJ1); 2800 nM on INPP5E; 1440 nM against INPP5A.

On to `COc1cc(-c2nnc3sc(-c4cccs4)nn23)cc(OC)c1OC` [YU142717], for which the results for the concentration for half-maximal inhibition (IC50) against INPP5B catalytic domain and at INPP5B [4] were 920 nM and 2630 nM, respectively.

In the case of `COc1cc(CN)c(Br)cc1OCc1ccccc1Cl` [YU144118], the IC50 on SHIP1 turned out to be 8970 nM; against INPP5B catalytic domain it was 1100 nM; at Synaptojanin 1 (SJ1) it was 1300 nM; on INPP5E it was 5770 nM; against INPP5A it was 1810 nM.
